Test results: paper PMC11239005, “Preclinical studies of RA475, a guanidine-substituted spirocyclic candidate RPN13/ADRM1 inhibitor for treatment of ovarian cancer” (PLOS ONE, 2024)

Columns and labels:
[1] = test system: HeLa; assay: MTT cytotoxicity assay, HeLa; format: cell-based; conditions: Homo sapiens, 72 h
Description: (§1) All cell lines were obtained from the American Type Culture Collection (ATCC) and cultured in the specified medium supplemented with 10% fetal bovine serum, 100 IU/mL penicillin, and 100 μg/mL streptomycin at 37°C in a humidified 5% CO2/95% air incubator. Synthesis of new compounds is described in S1 File, and >95% purity of RA475, Up284 and its analogs were confirmed by NMR and MS. To assess drug cytotoxicity, cells were seeded at 2,500 cells/well (10,000 cells/well for MM lines) in 100 μL medium in 96-well plate as triplicates and after 24 h treated with compounds for a further 72 h. To assess cytotoxicity, the cells were incubated for 2 h at 37°C according to the manufacturer’s protocol with the Thiazolyl Blue Tetrazolium Bromide (20 μL/well of 5 mg/mL stock solution in water) (Sigma, M5655) and A570 measured using a Benchmark Plus microplate spectrophotometer (BIO-RAD). IC50 was estimated using Graphpad Prism 7 software.

[2] = Tissue distribution in CD1 mice; format: in vivo, mouse; conditions: 24 h; for Concentration in brain: one IV dose 40 mg/kg
Description: For the stability studies and biodistribution studies, plasma or tissue homogenate (20 μL) was extracted with 100 μL of acetonitrile containing the internal standard RA413S (a structural analogue) at 10 ng/mL. Tissue homogenates were prepared at a concentration of 200 mg/mL in PBS. After vortex-mixing and centrifuging for 5 min at 2500 xg, 10 μL of the supernatant was injected into LC-MS/MS system. […] Mobile phase A was water containing 0.1% formic acid, and mobile phase B was acetonitrile containing 0.1% formic acid. The gradient started with mobile phase B at 20% and was held at 20% for 0.5 minutes with a flow rate of 0.3 mL/min, then increased to 100% over 0.5 minutes and held for 2.0 minutes, and finally returned back to 20% mobile phase B and allowed to equilibrate until 4.1minutes. An AB Sciex 5500 triple quadrupole mass spectrometer operated in positive electrospray ionization mode was used for the detection of RA475. The lower limit of quantitation (LLOQ) in plasma was 10 ng/mL.
In a separate experiment to assess drug distribution, CD1 mice were injected with one dose of RA475 (40 mg/kg, IV) and tissues collected after 4 h and 24 h. RA475 levels were analyzed in all major tissues (brain, colon, heart, kidney, liver, lung and spleen) by LC-MS/MS.
Fig 5 Tissue distribution of RA475 and Up284 in mice. Female CD1 mice (n = 3/drug) were treated with one IV dose of A) RA475 (40mg/kg) or B) Up284 (40mg/Kg) and euthanized after 24 h with collection of plasma and tissues including brain, colon, heart, kidney, liver, lung and spleen. RA475 and Up284 concentrations in tissue samples were analyzed by LC-MS/MS. TEXT PRINTED IN THE PICTURE: (A) RA475: RA475 Concentration (ng/mL or ng/g): 161 (Brain) | (B) Up284: Up284 Concentration (ng/mL or ng/g): 9214 (Brain)

[3] = test system: Calu-1; assay: MTT cytotoxicity assay, Calu-1; format: cell-based; conditions: Homo sapiens, Calu-1, 72 h
Description: as §1

[4] = 1 h; Up284 not in this paper's method, no reference at the place; cited from earlier work
[5] = Mouse plasma protein binding, equilibrium dialysis; format: in vitro ADME; conditions: pH 7.4, dialysis 5 h
Description: The assay was performed in a multiple-use 96-well dialysis unit (HTD96b dialyzer). Each individual well unit consisted of 2 chambers separated by a vertically aligned dialysis membrane of predetermined pore size (MWCO 12–14 kDa). 120 μL of non-diluted plasma spiked with the compound (1 μM, final DMSO concentration 1%) was added to one chamber, and the same volume of PBS buffer pH 7.4 to the other chamber. The HTD96b dialyzer was covered with adhesive sealing film and incubated 5 h at 37°C while shaking at 100 rpm. For sample preparation, an aliquot of the contents of each chamber was mixed with the same volume of the blank opposite matrix. In order to define non-specific loss of the compound during this assay, a standard solution was created by mixing an aliquot of spiked plasma with blank buffer without dialysis. Two aliquots of the standard solution were incubated at 37°C, shaking at 100 rpm for 5 h (recovery samples). The other two aliquots were immediately diluted with acetonitrile and stored at 4°C until analysis (stability samples). All samples were diluted 5-fold with internal standard diluted in 100% methanol with subsequent plasma proteins sedimentation by centrifuging at 6000 rpm for 5 minutes. Supernatants were analyzed using LC-MS/MS. The percentage of plasma protein bound compound, recovery and stability were calculated using following equations. […]

[6] = Stability in murine plasma; format: in vitro ADME, mouse; conditions: 10 μM, 1 h at 37°C
Description: Human and mouse liver microsomes and NADPH regenerating system solutions were purchased from Corning Life Sciences (Tewsbury, MA). Human and mouse K2EDTA-treated plasma was purchased from BioIVT (Westbury, NY). Metabolic studies in liver microsomes (0.125 mg/mL) were conducted in 1x PBS (pH 7.4), NADPH-generating system, and 10 μM RA475 in a final volume of 250 μL. An incubation mixture with or without NADPH-generating system, as well as a neat solution prepared without microsomes and NADPH-generating system was used. RA475 was added at the same concentration level into human and mouse EDTA plasma. All reactions were initiated with the addition of RA475. Incubations were performed in glass tubes maintained at 37°C in a shaker bath. At 0, 30, and 60 min, 10 μL samples were withdrawn from the reaction mixture, and 0.5 mL of acetonitrile containing internal standard was added to each. Samples were vortex-mixed and subjected to centrifugation for 5 min at 1430 x g. A 10 μL aliquot of the supernatant was injected onto the LC-MS/MS instrument for qualitative analysis using a temperature-controlled autosampling device operating at 5°C (See Pharmacokinetic section).

Row | Compound | IC50 [1] [nM] | Concentration in brain [2] | IC50 [3] [nM] | present after 1 h in liver microsomes [4] [%] | tissue accumulation ([2]; 40 mg/kg IV) | fraction unbound at 5 h, 1 μM [5] | stability in plasma [6]
1 | N#Cc1ccc(/C=C2/C(=O)/C(=C/c3ccc(C#N)cc3)C23CCNCC3)cc1 [Up284, reference compound] | 40 | 9214 ng/mL or ng/g | 65 | 52 | – | – | –
2 | Cl.Cl.N#Cc1ccc(/C=C2/C(=O)/C(=C/c3ccc(C#N)cc3)C23CCN(C(=N)N)CC3)cc1 [RA475, 1,3-bis((E)-4-cyanobenzylidene)-2-oxo-7-azaspiro[3.5]nonane-7-carboximidamide dihydrochloride] | 213 | 161 ng/mL or ng/g | 241 | – | accumulated primarily in kidneys and liver | < 0.01 | did not degrade
